Drawing on patent US9062056B2, “Aza-benzimidazolone Chymase inhibitors” (Boehringer Ingelheim International GmbH, priority 2008, dated 2015), this text covers IC50 for 26 molecules.

The term IC50 denotes the point on the concentration scale where inhibition reaches its midpoint.

The assay concerns the target T1, Chymase (Homo sapiens, UniProt P23946).
T1 sequence (P23946 22-247): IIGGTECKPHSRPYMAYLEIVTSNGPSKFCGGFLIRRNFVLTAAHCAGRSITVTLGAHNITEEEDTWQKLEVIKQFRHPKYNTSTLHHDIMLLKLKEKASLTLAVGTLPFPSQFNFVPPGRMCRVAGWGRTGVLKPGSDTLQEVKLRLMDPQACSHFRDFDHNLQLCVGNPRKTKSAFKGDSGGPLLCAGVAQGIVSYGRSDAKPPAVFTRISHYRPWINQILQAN
Kind of assay: In vitro assay for inhibition of Chymase (rhodamine 110 peptide substrate, fluorescence). As to conditions: 500 pM chymase, 100 nM substrate, 100 μM TCEP, 1% DMSO, 28° C., 1 hour. It is filed as biochemical. As to the method:
IN VITRO ASSAY FOR INHIBITION OF CHYMASE
Chymase assays were performed in a total volume of 15 μL in Corning black opaque 384-well microtiter plates with a non-binding surface (Corning, N.Y.). The assay buffer was comprised of 20 mM Tris HCl pH 8.0, 50 mM NaCl, 0.01% CHAPS. The test compounds were serially diluted 3-fold with neat DMSO in a 96-well polypropylene plate from a 10 mM DMSO stock to give the 10 point dose response curve. 3 μL of the resulting DMSO solution were transferred to a 384-well polypropylene plate in duplicate, and 37 μL of assay buffer was added. Chymase was added to the assay plate in 3 uL of assay buffer followed by 2 uL of the appropriate compound dilution using a PlateMate Plus (Matrix Technologies Corp., Hudson, N.H.). The reaction was initiated by the addition of 10 uL rhodamine 110, bis-(succinoyl-L-alanyl-L-alanyl-L-prolyl-L-phenylalanylamide) (American Peptides, Sunnyvale, Calif.) in assay buffer containing 150 μM tris(2-carboxyethyl)phosphine (TCEP, Pierce Chemical, Rockford, Ill.) using a Multidrop (Thermo Electron Corp., Waltham, Mass.). Final assay concentrations were 500 pM chymase, 100 nM substrate, 100 μM TCEP, and 1% DMSO. The plates were incubated at 28° C. and 80% humidity for 1 hour, at which time the fluorescence was read on a Viewlux 1430 Microplate Imager (Perkin Elmer Life Sciences, Boston, Mass.) with 485 nm excitation, 530 nm emission, and a fluorescein dichroic mirror. The percentage of control values were calculated relative to assay blanks containing complete reaction minus chymase and a 100% control containing assay buffer with 1% DMSO in place of compound. IC50 values were obtained by fitting the data using XLFit4 (IDBS Software).
Turning to `Cc1cc(C)c2c(Cn3c(=O)n([C@H](CC(=O)O)c4cccc(Cl)c4)c4nc(C)ccc43)nsc2c1` [(R)-3-(3-Chloro-phenyl)-3-[1-(4,6-dimethyl-1,2-benzisothiazol-3-ylmethyl)-5-methyl-2-oxo-1,2-dihydro-imidazo[4,5-b]pyridin-3-yl]-propionic acid], the IC50 came out at 6.26 nM.
In the case of `Cc1cc(C)c2c(Cn3c(=O)n([C@H](CC(=O)O)c4ccc(F)cc4)c4nc(C(N)=O)ccc43)cn(C)c2c1` [(R)-3-[5-Carbamoyl-2-oxo-1-(1,4,6-trimethyl-1H-indol-3-ylmethyl)-1,2-dihydro-imidazo[4,5-b]pyridin-3-yl]-3-(4-fluoro-phenyl)-propionic acid] it was 0.395 nM; in that of `Cc1cccc2c1c(Cn1c(=O)n([C@H](CC(=O)O)c3ccccc3)c3nc(C(C)C)ncc31)cn2C` [(R)-3-[7-(1,4-Dimethyl-1H-indol-3-ylmethyl)-2-isopropyl-8-oxo-7,8-dihydro-purin-9-yl]-3-phenyl-propionic acid], 12.6 nM.
In the case of `Cc1cccc2c1c(Cn1c(=O)n([C@H](CC(=O)O)c3ccccc3)c3ncccc31)cn2C` [(R)-3-[1-(1,4-Dimethyl-1H-indol-3-ylmethyl)-2-oxo-1,2-dihydro-imidazo[4,5-b]pyridin-3-yl]-3-phenyl-propionic acid] it was 2.21 nM.
To `CCC[C@@H](CC(=O)O)n1c(=O)n(Cc2cn(C)c3cccc(C)c23)c2ncccc21` [(S)-3-[3-(1,4-Dimethyl-1H-indol-3-ylmethyl)-2-oxo-2,3-dihydro-imidazo[4,5-b]pyridin-1-yl]-hexanoic acid] belongs 8.86 nM; to `Cc1ccc2c(n1)n([C@H](CC(=O)O)c1ccc(Cl)cc1)c(=O)n2Cc1cn(C)c2cccc(C)c12` [(R)-3-(4-Chloro-phenyl)-3-[1-(1,4-dimethyl-1H-indol-3-ylmethyl)-5-methyl-2-oxo-1,2-dihydro-imidazo[4,5-b]pyridin-3-yl]-propionic acid], 0.255 nM; to `CCC[C@@H](CC(=O)O)n1c(=O)n(Cc2nsc3cc(C)cc(C)c23)c2ccc(C)nc21` [(S)-3-[1-(4,6-Dimethyl-1,2-benzisothiazol-3-ylmethyl)-5-methyl-2-oxo-1,2-dihydro-imidazo[4,5-b]pyridin-3-yl]-hexanoic acid], 3.4 nM.
On to `Cc1cc2c(cn1)n(Cc1cn(C)c3cccc(C)c13)c(=O)n2[C@H](CC(=O)O)c1ccccc1` [(R)-3-[3-(1,4-Dimethyl-1H-indol-3-ylmethyl)-6-methyl-2-oxo-2,3-dihydro-imidazo[4,5-c]pyridin-1-yl]-3-phenyl-propionic acid], for which the IC50 turned out to be 2.62 nM.
On to `CCC[C@@H](CC(=O)NS(=O)(=O)c1cn(C)cn1)n1c(=O)n(Cc2cn(C)c3cccc(C)c23)c2cccnc21` [1-Methyl-1H-imidazole-4-sulfonic acid {(S)-3-[1-(1,4-dimethyl-1H-indol-3-ylmethyl)-2-oxo-1,2-dihydro-imidazo[4,5-b]pyridin-3-yl]-hexanoyl}-amide], for which the IC50 stood at 6.71 nM.
To `CCCC(CC(=O)O)n1c(=O)n(Cc2cn(C)c3cccc(C)c23)c2ccc(C#N)nc21` (centres unmarked) [3-[5-Cyano-1-(1,4-dimethyl-1H-indol-3-ylmethyl)-2-oxo-1,2-dihydro-imidazo[4,5-b]pyridin-3-yl]-hexanoic acid] belongs 2.2 nM.
In the case of `Cc1cc(C)c2c(Cn3c(=O)n([C@H](CC(=O)O)c4ccccc4)c4ncccc43)cn(C)c2c1` [(R)-3-[2-Oxo-1-(1,4,6-trimethyl-1H-indol-3-ylmethyl)-1,2-dihydro-imidazo[4,5-b]pyridin-3-yl]-3-phenyl-propionic acid] it was 0.61 nM; in that of `COc1ccc([C@@H](CC(=O)O)n2c(=O)n(Cc3cn(C)c4cccc(C)c34)c3ccc(C)nc32)cc1` [(R)-3-[1-(1,4-Dimethyl-1H-indol-3-ylmethyl)-5-methyl-2-oxo-1,2-dihydro-imidazo[4,5-b]pyridin-3-yl]-3-(4-methoxy-phenyl)-propionic acid], 0.455 nM; in that of `CCC[C@@H](CC(=O)O)n1c(=O)n(Cc2cn(C)c3cccc(C)c23)c2ccc(C)nc21` [(S)-3-[1-(1,4-Dimethyl-1H-indol-3-ylmethyl)-5-methyl-2-oxo-1,2-dihydro-imidazo[4,5-b]pyridin-3-yl]-hexanoic acid], 4.48 nM.
To `Cc1cccc2c1c(Cn1c(=O)n([C@H](CC(=O)O)c3ccccc3)c3nc(C4CC4)ncc31)cn2C` [(R)-3-[2-Cyclopropyl-7-(1,4-dimethyl-1H-indol-3-ylmethyl)-8-oxo-7,8-dihydro-purin-9-yl]-3-phenyl-propionic acid] belongs 5 nM; to `CCC[C@@H](CC(=O)NS(=O)(=O)C(C)(C)C)n1c(=O)n(Cc2cn(C)c3cccc(C)c23)c2cccnc21` [2-Methyl-propane-2-sulfonic acid {(S)-3-[1-(1,4-dimethyl-1H-indol-3-ylmethyl)-2-oxo-1,2-dihydro-imidazo[4,5-b]pyridin-3-yl]-hexanoyl}-amide], 1 nM.
The molecule `CCCC(CC(=O)O)n1c(=O)n(Cc2cn(C)c3cc(C)cc(C)c23)c2ccc(C(N)=O)nc21` (centres unmarked) [3-[5-Carbamoyl-2-oxo-1-(1,4,6-trimethyl-1H-indol-3-ylmethyl)-1,2-dihydro-imidazo[4,5-b]pyridin-3-yl]-hexanoic acid] came in with a concentration for half-maximal inhibition (IC50) of 1.93 nM.
To `CCCC(Cn1c(=O)n(Cc2cn(C)c3cccc(C)c23)c2cccnc21)C(=O)O` (centres unmarked) [2-[1-(1,4-Dimethyl-1H-indol-3-ylmethyl)-2-oxo-1,2-dihydro-imidazo[4,5-b]pyridin-3-ylmethyl]-pentanoic acid] belongs 3 nM; to `Cc1cc(C)c2c(Cn3c(=O)n([C@H](CC(=O)O)c4ccccc4)c4ncccc43)nsc2c1` [(R)-3-[1-(4,6-Dimethyl-benzo[d]isothiazol-3-ylmethyl)-2-oxo-1,2-dihydro-imidazo[4,5-b]pyridin-3-yl]-3-phenyl-propionic acid], 4.23 nM.
To `Cc1cccc2c1c(Cn1c(=O)n([C@H](CC(=O)O)c3ccccc3)c3ccncc31)cn2C` [(R)-3-[3-(1,4-Dimethyl-1H-indol-3-ylmethyl)-2-oxo-2,3-dihydro-imidazo[4,5-c]pyridin-1-yl]-3-phenyl-propionic acid] belongs 3.91 nM; to `Cc1ccc2c(n1)n([C@H](CC(=O)O)c1ccccc1)c(=O)n2Cc1cn(C)c2cccc(C)c12` [(R)-3-[1-(1,4-Dimethyl-1H-indol-3-ylmethyl)-5-methyl-2-oxo-1,2-dihydro-imidazo[4,5-b]pyridin-3-yl]-3-phenyl-propionic acid], 2.52 nM; to `Cc1ccc2c(n1)n([C@H](CC(=O)O)c1cccc(Cl)c1)c(=O)n2Cc1cn(C)c2cccc(C)c12` [(R)-3-(3-Chloro-phenyl)-3-[1-(1,4-dimethyl-1H-indol-3-ylmethyl)-5-methyl-2-oxo-1,2-dihydro-imidazo[4,5-b]pyridin-3-yl]-propionic acid], 7.07 nM.
To `Cc1cc(C)c2c(Cn3c(=O)n([C@H](CC(=O)O)c4ccccc4)c4nc(C#N)ccc43)cn(C)c2c1` [(R)-3-[5-Cyano-2-oxo-1-(1,4,6-trimethyl-1H-indol-3-ylmethyl)-1,2-dihydro-imidazo[4,5-b]pyridin-3-yl]-3-phenyl-propionic acid] belongs 0.6 nM; to `Cc1cc(C)c2c(Cn3c(=O)n([C@H](CC(=O)O)c4ccc(Cl)cc4)c4nc(C)ccc43)cn(C)c2c1` [(R)-3-(4-Chloro-phenyl)-3-[5-methyl-2-oxo-1-(1,4,6-trimethyl-1H-indol-3-ylmethyl)-1,2-dihydro-imidazo[4,5-b]pyridin-3-yl]-propionic acid], 0.2 nM; to `Cc1cc(C)c2c(Cn3c(=O)n([C@H](CC(=O)O)c4ccccc4)c4cc(C)ncc43)nsc2c1` [(R)-3-[3-(4,6-Dimethyl-1,2-benzisothiazol-3-ylmethyl)-6-methyl-2-oxo-2,3-dihydro-imidazo[4,5-c]pyridin-1-yl]-3-phenyl-propionic acid], 4 nM.
Consider `Cc1cccc2c1c(Cn1c(=O)n([C@H](CC(=O)O)c3ccc(Cl)cc3)c3nc(C#N)ccc31)cn2C` [(R)-3-(4-Chloro-phenyl)-3-[5-cyano-1-(1,4-dimethyl-1H-indol-3-ylmethyl)-2-oxo-1,2-dihydro-imidazo[4,5-b]pyridin-3-yl]-propionic acid], for which it took 0.165 nM to reach half-maximal inhibition (IC50).
To `Cc1ccc2c(n1)n([C@H](CC(=O)O)c1cccnc1)c(=O)n2Cc1cn(C)c2cccc(C)c12` [(R)-3-[1-(1,4-Dimethyl-1H-indol-3-ylmethyl)-5-methyl-2-oxo-1,2-dihydro-imidazo[4,5-b]pyridin-3-yl]-3-pyridin-3-yl-propionic acid] belongs 10.7 nM.
